The source of these data is patent US7879914B2, “Methods for treating viral infections using polyamine analogs” (Pathlogica LLC, priority 2005, dated 2011).

“Also recorded” adds a separate entry of the source. Like-named read-outs stand apart in the source and are kept apart here.

Series [1] deals with HIV DNA associated with CD14 cells. The series can be described thus: HIV DNA in isolated CD14 cells after ex vivo drug exposure, quantitative DNA PCR. The series is classed as cell-based. On the procedure: Blood from patients with advanced HIV disease was Percol gradient separated into peripheral blood mononuclear cells (PBMCs) and 5 million cells from each specimen were exposed to a 1 μM concentration of MGBG or control saline for five days. […] After the five day incubation, CD14 immunomagnetic separation with a Miltenyi separation system was performed. Separated CD14 cells from treated and untreated control specimens were evaluated for the level of HIV DNA in each specimen. C-jun, single copy DNA controls were utilized in each specimen to provide the HIV DNA/genomic equivalent values as determined by quantitative DNA PCR analysis as described in Mack, K. D., et al. JAIDS (2003) 33: 308-20. […]
Blood from three patients with advanced HIV disease was Percol gradient separated into peripheral blood mononuclear cells (PBMC's) and 5 million cells from each specimen were exposed to a 10 micromolar concentration of the polyamine analog CG47 or control saline for 5 days. […] Separated CD14 cells from treated and untreated control specimens were evaluated for the level of HIV DNA in each specimen. C-jun, single copy DNA controls were utilized in each specimen to provide the HIV DNA/genomic equivalent values as determined by quantitative DNA PCR analysis as described in Mack et al. (JAIDS). […]

For series [2] the following is noted: patients, Int. J. Cancer 26, 571 (1980); cited from earlier work.
The subject of another series is CD16+ monocytes. The series can be described thus: Killing of CD16+ monocytes by polyamine biosynthesis inhibitors (Example 6). The series is classed as cell-based, human. The following applies: for comparison of effectiveness of both PBIs: FIG. 6, 10 μM, five days. As to the method: Mononuclear cells were isolated from individuals with HIV infection, uninfected individuals or a patient with ALS and incubated in the absence or presence of increasing concentrations of the PBIs, MGBG (PA-001) and CG47. After five days in culture under non-adherent conditions cells were isolated stained with antibodies to CD14+ and CD16+ and counted by flow cytometry using a FACSCAN (BD-biosciences). The fraction of CD14+ monocytes that expressed CD16 was determined and compared to levels seen in the absence of drug.
Those samples that were relatively resistant to PBIs required 100 μM or more of drug to achieve similar levels of killing. […] Overall 65% to 80% of samples from individuals with HAND were sensitive (>70% killing with 10 μM PBI or less) to PBIs.
The overall results with mononuclear cells from HIV infected individuals, ALS patients, and healthy controls are shown in FIG. 6. […] The number of mononuclear cell samples evaluated in each category were as follows: ALS with PA-001 (MGBG)=6, and with CG47=28. Drug resistant HIV with PA-001=22, and with CG47=48. HAD with PA-001=9, and with CG47=5. Healthy with PA-001=24, and with CG47=15.

Series [3] deals with CD14/CD16+ blood macrophages from HIV positive patients. The series can be described thus: Susceptibility assay: killing of CD14/CD16+ blood macrophages from HIV patients. The series is classed as cell-based. The conditions noted are these: for EC50: Homo sapiens, Macrophage, advanced HIV disease, read-out: Mean ED50. On the procedure:
The following procedures/protocols were used in some of the examples that follow. All steps were performed in a biological safety cabinet using Universal Precautions for handling human blood samples and standard aseptic techniques.
Blood was drawn in heparinized tubes (green top Vacutainer tubes from Becton-Dickson) and Percol gradient separated into peripheral blood mononuclear cells (PBMCs), according to the following procedure. Aliquots of no more than 25 mL whole blood were transferred into clean, sterile, prelabeled 50 mL conical tubes. Using a sterile 25 mL pipet, equal volume of PBS (Mg^+2/Ca^+2 free) was added to the whole blood and the tubes were inverted 2 or 3 times. […] (For example: 10 mL whole blood +10 mL PBS.)
The diluted blood was slowly and carefully layered over the sterile Percol in amounts of 15-20 mL by holding the pipet at a 45 degree angle, relative to the Percol tube, and slowly dripping the diluted blood down the side of the tube. The resulting mixture was centrifuged at 2100 RPM for 30 minutes at 25° C. The buffy coat (i.e., the white layer between the yellow plasma on top and clear Percol solution below) so obtained was then slowly aspirated, taking care not to aspirate the Percol. The buffy coat was resuspended in sterile PBS (Mg^+2/Ca^+2 free) and the volume was brought up to 50 mL. The mixture was gently mixed by slowly pipetting up and down 3 times and the cell suspension was centrifuged at 1500 RPM for 10 minutes at 25° C. The supernatant was discarded and the bottom of the tube gently tapped to dislodge the cell pellet.
The PBMC for the susceptibility assays was prepared in accordance with the following procedures. A cell culture medium was prepared by mixing RPMI+10% FBS+1% sodium pyruvate and filter sterilized using a filter unit with 0.22 micron pore size. The cell pellet was then resuspended in 3 ml of the cell culture medium. The suspension was gently mixed by slowly pipetting up and down 3 times. The cells were counted using a hemacytometer and the cell density was adjusted to 1×10^6 cells/mL in the cell culture medium, followed by mixing by slowly pipetting up and down 3 times. The cells were incubated in a 50 mL sterile polypropylene tube, at 37° C. and 5% CO2 for 1-2 days. The cap was loosened and the tubes were tipped to 30-45 degrees relative to the tray surface. A styrofoam tube rack was used to hold the tubes.
The MGBG drug was prepared in accordance with the following procedures. A primary stock of MGBG was prepared by weighing out enough MGBG to make a 1 molar (M) solution and dissolved in sterile PBS (Mg^+2/Ca^+2 free). The solution was vortexed until all of the MGBG had dissolved. A secondary stock (0.01 M) was prepared from a 1/100 dilution of the primary stock and filter sterilized by passing the solution through a 0.22 micron filter. A working stock (0.001 M or 1,000 microMolar) was prepared from a 1/10 dilution of the secondary stock. The CG47 drug was prepared by an identical procedure.
Drug doses for the susceptibility assays were prepared in accordance with the following procedures. Drug dilutions were prepared at 10-fold higher concentrations than the final desired concentrations. For example a 100 microMolar drug solution was made for a desired final concentration of 10 microMolar. The drugs were diluted an additional 1/10 upon addition to the cell suspension (e.g., 0.1 mL drug +0.9 mL cell suspension). The drug doses for the susceptibility assays were prepared right before use in cell culture media.
Susceptibility assays were conducted in accordance with the following procedures. The MGBG drug as added 1-2 days after PBMC was separated from whole blood. […]

On to `CC(/C=N/NC(=N)N)=N\NC(=N)N` [MGBG], for which the “reduction in HIV DNA associated with CD14 cells (average)” value in series [1] (1 μM, five days) is reported as above 99%. In series [2], the “toxicity in an anti-cancer regimen” value is “unacceptably toxic”. For the same molecule, in the series with CD16+ monocytes, the “comparison of effectiveness of both PBIs” value is “approximately equivalently effective”. Also, the “killing of CD14/16+ cells that contain HIV DNA” value in series [3] (1 μM) is recorded as “Complete killing; also recorded: near quantitative”. For the same molecule, in series [3] (1 μM, five days, PBMCs of patients with advanced HIV disease), the “killing of the CD14/CD16 blood macrophage population” value is above 80%. Besides, in series [3] (HIV positive patients, FIG. 1), the “killing of HIV infected macrophages, dose dependence” value is reported as “dose-dependent”. Also, the “killing of HIV-infected macrophages from HAD patients” value in series [3] (HIV-associated dementia (HAD) patients, compared with HIV positive) is “nearly as effective”. Further, the EC50 in series [3] (MGBG, mean of 10 patients) was found to be 0.465 µM.
Take `CCNCCCNC/C=C\CNCCCNCC.Cl.Cl.Cl.Cl` [CG47, N,N′-bis(3-ethylaminopropyl)-cis-but-2-ene-1,4-diamine tetrahydrochloride]: in series [1] (10 micromolar, 5 days, three blood specimens), the “reduction in HIV DNA associated with CD14 cells (average)” value is reported as above 90%. In addition, the “changes in lymphocyte levels” value in the series on CD16+ monocytes (10 μM or less) was “little or no changes”. Besides, in the series on CD16+ monocytes, the “comparison of effectiveness of both PBIs” value is reported as “approximately equivalently effective”. The “killing of the CD14/CD16 blood macrophage population” value in series [3] (10 micromolar, 5 days, PBMCs of three patients with advanced HIV disease) is recorded as above 80%. In series [3] (FIG. 4, ex vivo), the “sensitivity of CD14/CD16+ macrophages from the HIV patient” value is “extremely sensitive”. Also, the EC50 in series [3] (CG47, mean of 13 patients) is 3.5 µM.
